Read-outs that look alike come from different tables or passages of the source.
Legend:
[1] = biological target: T1, CYP11A (Homo sapiens, UniProt P05108); test: Conversion reaction of substrates by CYP11A-expressing Escherichia coli; type: cell-based; details: for added substrate remained / accumulated amount of pregnenolone: same reaction as Example 6; for Conversion rate: same reaction as Example 6 (28° C., 5 hours)
T1 construct: A 1.45-kb CYP11A1 gene fragment amplified as a result of the above-described reaction; expressed in transfected cells; host or cells: Escherichia coli BL21(DE3), plasmid pCYP11A-ARX (strain BL21CYP11)
T1 sequence (P05108 40-521): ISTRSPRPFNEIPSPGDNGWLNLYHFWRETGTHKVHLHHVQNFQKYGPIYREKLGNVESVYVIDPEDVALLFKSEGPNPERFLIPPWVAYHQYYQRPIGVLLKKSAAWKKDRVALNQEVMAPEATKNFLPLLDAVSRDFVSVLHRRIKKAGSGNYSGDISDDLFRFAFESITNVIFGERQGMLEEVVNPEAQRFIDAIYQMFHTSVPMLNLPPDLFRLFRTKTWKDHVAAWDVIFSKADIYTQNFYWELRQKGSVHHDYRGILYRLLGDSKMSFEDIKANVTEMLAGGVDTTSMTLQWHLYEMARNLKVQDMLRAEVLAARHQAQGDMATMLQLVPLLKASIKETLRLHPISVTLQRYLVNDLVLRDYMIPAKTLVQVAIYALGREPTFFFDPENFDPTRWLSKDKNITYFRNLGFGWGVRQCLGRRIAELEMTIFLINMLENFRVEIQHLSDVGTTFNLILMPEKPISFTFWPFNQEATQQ
Procedure: (§1) The Escherichia coli expression strain BP215 was inoculated into 2 ml of an M9 mix medium (Na2HPO4: 0.68%, KH2PO4: 0.3%, NaCl: 0.05%, NH4C;: 0.01%, Casamino acid: 1%, D-Glucose: 0.4%, CaCl2: 0.1 mM, MgCl2: 1 mM, Thiamine: 0.002%, FeSO4: 0.1 mM, Carbenicillin: 0.005%), and it was then subjected to shaking culture at 30° C. for 17 hours, so as to obtain pre-culture solution. 0.25 ml of this pre-culture solution was inoculated into 25 ml of the main culture medium (Na2HPO4: 0.68%, KH2PO4: 0.3%, NaCl: 0.05%, NH4Cl: 0.01%, Casamino acid: 1%, CaCl2: 0.1 mM, MgCl2: 1 mM, Thiamine: 0.002%, FeSO4: 0.1 mM, Carbenicillin: 0.005%, Overnight Express™ solution: 7%, 5-Aminolevlic acid: 0.008%) using Overnight Express™ Autoinduction System (Novagen Cat. No. 71300-4), and it was then subjected to shaking culture at 25° C. for 24 hours. 5 ml of the obtained main culture solution was centrifuged (3500 rpm, 10 minutes) to obtain cell mass, and 1 ml of CV2 buffer (50 mM (pH) potassium phosphate buffer containing glycerol: 2%, carbenicillin: 0.005%, and isopropyl β-D-1-thiogalactopyranoside: 0.1 mM) was added to the obtained cell mass. Thereafter, 0.01 ml of the methanol solution of 1% 4-cholesten-3-one and 0.02 ml of an aqueous solution of 25% methyl-β-cyclodextrin were added to the mixed solution, and the obtained mixture was then shaken at 28° C. for 5 hours for the reaction. After completion of the reaction, 4 ml of methanol was added to the reaction solution, and they were then fully mixed. The obtained mixture was centrifuged, and the upper layer was then analyzed by HPLC.
A commercially available human testis cDNA (Origene Technologies, Inc.) was used as a template, and a CYP11A1 gene was amplified by PCR using a primer CYP11A-1F (SEQ ID NO: 19) and a primer CYP11A-2R (SEQ ID NO: 20), and also using KOD plus polymerase (TOYOBO Co., Ltd.). The temperature conditions applied during the PCR were 94° C./3 min, 30 cycles of (94° C./30 sec, 55° C./60 sec, and 72° C./90sec), and 72° C./5 min.
A 1.45-kb CYP11A1 gene fragment amplified as a result of the above-described reaction was purified using QIAquick PCR purification Kit (manufactured by QIAGEN), and it was then digested with Nde I and Spe I. Thereafter, the digest was ligated to Escherichia coli expression vector pT7NS-camAB, using T4 DNA ligase, and Escherichia coli DH5α was then transformed with the obtained expression vector, so as to construct a plasmid pCYP11A-camAB. Subsequently, using T4 DNA ligase, the previously prepared bovine-derived adrenodoxin reductase protein-adrenodoxin gene (adr-adx) fragment was inserted into and ligated to each of the Spe I and Bam HI sites of the above-described plasmid, and Escherichia coli DH5a was then transformed with the obtained plasmid, so as to construct plasmid pCYP11A-ARX. Thereafter, Escherichia coli BL21(DE3) was transformed with the thus constructed plasmid, and the obtained cell strain was named as BL21CYP11. The used adx-adr fragment was amplified by PCR with a plasmid pKARX (Sawada et. al. Eur. J. Biochem. 265, 950-956,1999) as a template, using primer bAdxR-1F (SEQ ID NO: 21) and primer bAdx-2R (SEQ ID NO: 22), and also using KOD plus polymerase (manufactured by TOYOBO Co., Ltd.). The temperature condition applied during the PCR were 94° C./3 min, 25 cycles of (94° C./30 sec, 60° C./30 sec, and 72° C./120sec), and 72° C./5 min.
Each substrate was subjected to the same reaction as that of Example 6, separately, and the reaction solution was then subjected to liquid separation using 1 ml of ethyl acetate. The reaction product and the substrate were extracted, and were then analyzed by HPLC.

[2] = tested on: CYPSS204A; test: Conversion reaction of substrates by Escherichia coli expression strain BP215; type: cell-based, Sphingomonas subterranea NBRC 16086
Procedure: The temperature conditions applied during the PCR were 95° C./5 min, 30 cycles of (98° C./30 sec, 60° C./30 sec, and 68° C./2 min), and 68° C./10 min.
Analysis conditions: Using Chromolith speed rod RP18e (50×4.6 mm) column, 50%→100% CH3CN gradient (0 to 3 min) and 100% CH3CN (3 to 8 min) were used as a mobile phase, and detection was carried out at a flow rate of 2 ml/min using CAD™ (Charged Aerosol Detection) and MS.

[3] = tested on: CYP204A1; details: for Conversion rate: strain BP172, same reaction as Example 6 (28° C., 5 hours); for accumulated amount of pregnenolone / added substrate remained: strain BP172, same reaction as Example 6
Procedure: Novosphingobium aromaticivorans (ATCC 700278) was inoculated into an L medium, and it was then cultured at 30° C. for 2 days. Thereafter, genomic DNA was extracted from the cell mass obtained in the same manner as that of Example 1. A fragment comprising a CYPSS204A1 gene and a ferredoxin gene located downstream thereof was amplified from the above-described genomic DNA by using a primer CYP-5F (SEQ ID NO: 9) and a primer CYP-6R (SEQ ID NO: 10) and also using La Taq polymerase (manufactured by Takara Bio INC.). The temperature conditions applied during this operation were 94° C./3 min, 30 cycles of (98° C./20 sec, 63° C./30 sec, and 68° C./2 min), and 72° C./5 min.
Escherichia coli BL21(DE3) was transformed with this plasmid, and the obtained cell strain was named as BP172.
as §1
As substrates, 4-cholesten-3-one, cholesterol, 7-dehydrocholesterol, ergosterol, 13-sitosterol, stigmasterol, campesterol, desmosterol, (20S)-20-hydroxycholest-4-en-3-one, (22R)-22-hydroxycholest-4-en-3-one, (20R,22R)-20,22-dihydroxycholest-4-en-3-one, and (20R,22S)-20,22-dihydroxycholest-4-en-3-one were used. Each substrate was subjected to the same reaction as that of Example 6, separately, and the generated product was then analyzed by HPLC.

[4] = strain BP215, 28° C., 5 hours, to progesterone, pregnenolone or 7-dehydropregnenolone

SMILES: CC(C)CC[C@@H](O)[C@@H](C)[C@H]1CC[C@H]2[C@@H]3CCC4=CC(=O)CC[C@]4(C)[C@H]3CC[C@]12C [(22R)-22-hydroxycholest-4-en-3-one]
- added substrate remained [1]: 99.7%
- Conversion rate [1]: 0.4%
- added substrate remained ([2]; strain BP215, 28° C., 5 hours): 2.7%
- Conversion rate [2, 4]: 42.3%
- Conversion rate [3]: 80.9%

SMILES: CC[C@H](/C=C/[C@@H](C)[C@H]1CC[C@H]2[C@@H]3CC=C4C[C@@H](O)CC[C@]4(C)[C@H]3CC[C@]12C)C(C)C [stigmasterol]
- added substrate remained [1]: 100%
- Conversion rate [1]: 0%
- accumulated amount of side-chain cleavage product ([2]; strain BP215, 28° C., 5 hours): 5.8 mg/L
- added substrate remained ([2]; strain BP215, 28° C., 5 hours): 70.8%
- Conversion rate [2, 4]: 5.8%
- Conversion rate [3]: 6.5%

SMILES: CC(C)CCC[C@](C)(O)[C@H]1CC[C@H]2[C@@H]3CC=C4C[C@@H](O)CC[C@]4(C)[C@H]3CC[C@@]21C [(20S)-20-hydroxy-cholesterol]
- accumulated amount of pregnenolone [1]: 16.3 mg/L
- added substrate remained [1]: 98.8%
- Conversion rate [1]: 16.3%
- accumulated amount of pregnenolone ([2]; strain BP215, 28° C., 5 hours): 89.2 mg/L
- added substrate remained ([2]; strain BP215, 28° C., 5 hours): 0%
- Conversion rate [2, 4]: 89.2%
- accumulated amount of pregnenolone [3]: 68.2 mg/L
- added substrate remained [3]: 25.2%
- Conversion rate [3]: 68.2%

SMILES: CC(C)CCC[C@](C)(O)[C@H]1CC[C@H]2[C@@H]3CCC4=CC(=O)CC[C@]4(C)[C@H]3CC[C@@]21C [(20S)-20-hydroxycholest-4-en-3-one]
- added substrate remained [1]: 100%
- Conversion rate [1]: 0%
- added substrate remained ([2]; strain BP215, 28° C., 5 hours): 4.8%
- Conversion rate [2, 4]: 41.0%
- Conversion rate ([2]; strain BP215, 28° C., 5 hours, to progesterone, pregnenolone or 7-dehydropregnenolone, listed as 20-OH): 41%
- Conversion rate [3]: 63.9%

SMILES: CC(C)CCC[C@@H](C)[C@H]1CC[C@H]2[C@@H]3CC=C4C[C@@H](O)CC[C@]4(C)[C@H]3CC[C@]12C [cholesterol]
- added substrate remained [1]: 99%
- Conversion rate [1]: 2.6%
- accumulated amount of side-chain cleavage product ([2]; strain BP215, 28° C., 5 hours): 68.2 mg/L
- added substrate remained ([2]; strain BP215, 28° C., 5 hours): 3.7%
- Conversion rate [2, 4]: 68.2%
- Conversion rate [3]: 71.2%

SMILES: CC(C)CC[C@H](O)[C@@H](C)[C@H]1CC[C@H]2[C@@H]3CC=C4C[C@@H](O)CC[C@]4(C)[C@H]3CC[C@]12C [(22S)-22-hydroxy-cholesterol]
- accumulated amount of pregnenolone [1]: 6.1 mg/L
- added substrate remained [1]: 92.6%
- Conversion rate [1]: 6.1%
- accumulated amount of pregnenolone ([2]; strain BP215, 28° C., 5 hours): 37.5 mg/L
- added substrate remained ([2]; strain BP215, 28° C., 5 hours): 23.5%
- Conversion rate [2, 4]: 37.5%
- accumulated amount of pregnenolone [3]: 12.9 mg/L
- added substrate remained [3]: 60.1%
- Conversion rate [3]: 12.9%

SMILES: CC(C)CCC[C@@H](C)[C@H]1CC[C@H]2C3=CC=C4C[C@@H](O)CC[C@]4(C)[C@H]3CC[C@]12C [7-dehydrocholesterol]
- added substrate remained [1]: 99.2%
- Conversion rate [1]: 0.7%
- accumulated amount of side-chain cleavage product ([2]; strain BP215, 28° C., 5 hours): 34.3 mg/L
- added substrate remained ([2]; strain BP215, 28° C., 5 hours): 54%
- Conversion rate [2, 4]: 34.3%
- Conversion rate [3]: 28.5%

SMILES: CC(C)CC[C@H](O)[C@](C)(O)[C@H]1CC[C@H]2[C@@H]3CCC4=CC(=O)CC[C@]4(C)[C@H]3CC[C@]12C [(20R,22S)-20,22-dihydroxycholest-4-en-3-one]
- added substrate remained [1]: 100%
- Conversion rate [1]: 0%
- added substrate remained ([2]; strain BP215, 28° C., 5 hours): 0.6%
- Conversion rate [2, 4]: 69.8%
- Conversion rate [3]: 41.7%

SMILES: CC(C)=CCC[C@@H](C)[C@H]1CC[C@@]2(C)C3=C(CC[C@]12C)[C@@]1(C)CC[C@H](O)C(C)(C)[C@@H]1CC3 [Lano, lanosterol]
- Conversion rate [1]: 0%
- Conversion rate [2, 4]: 0%
- Conversion rate [3]: 0%

SMILES: CC(C)CC[C@@H](O)[C@](C)(O)[C@H]1CC[C@H]2[C@@H]3CC=C4C[C@@H](O)CC[C@]4(C)[C@H]3CC[C@]12C [(20R,22R)-20,22-dihydroxy-cholesterol]
- accumulated amount of pregnenolone [1]: 32.3 mg/L
- added substrate remained [1]: 51.6%
- Conversion rate [1]: 32.3%
- accumulated amount of pregnenolone ([2]; strain BP215, 28° C., 5 hours): 53.0 mg/L
- added substrate remained ([2]; strain BP215, 28° C., 5 hours): 0%
- Conversion rate [2, 4]: 53.0%
- accumulated amount of pregnenolone [3]: 51.6 mg/L
- added substrate remained [3]: 0%
- Conversion rate [3]: 51.6%

SMILES: CC(C)=CCC[C@@H](C)[C@H]1CC[C@H]2[C@@H]3CC=C4C[C@@H](O)CC[C@]4(C)[C@H]3CC[C@]12C [desmosterol]
- added substrate remained [1]: 99.6%
- Conversion rate [1]: 1.2%
- accumulated amount of side-chain cleavage product ([2]; strain BP215, 28° C., 5 hours): 71.7 mg/L
- added substrate remained ([2]; strain BP215, 28° C., 5 hours): 21.3%
- Conversion rate [2, 4]: 71.7%
- Conversion rate [3]: 66.1%

SMILES: CC(C)[C@@H](C)/C=C/[C@@H](C)[C@H]1CC[C@H]2C3=CC=C4C[C@@H](O)CC[C@]4(C)[C@H]3CC[C@]12C [ergosterol]
- added substrate remained [1]: 100%
- Conversion rate [1]: 0%
- Conversion rate [2]: 2.8%
- accumulated amount of side-chain cleavage product ([2]; strain BP215, 28° C., 5 hours): 2.8 mg/L

— US20120178124A1, “STEROL SIDE CHAIN-CLEAVING ENZYME PROTEIN AND USE THEREOF” (MITSUBISHI CHEMICAL CORPORATION, priority 2009, published 2012)
